“Also recorded” adds a separate entry of the source.

Assay [1] concerns sympathetic neuron. Put plainly: Action potential firing in a sympathetic neuron, current-clamp.
Source text: Various currents are applied in “current-clamp” mode 44 ranging from 50 pA to −100 pA, and the resulting AP firing recorded.
In assay [2] the test system is mice subjected to one blunt TBI (CCCI). Put plainly: Dosage optimization: spontaneous myoclonic seizures after one blunt TBI (CCCI). The assay is classed as in vivo, mouse. Conditions: RL648_81 0.03, 0.1 and 0.3 mg/kg i.p. once 30 minutes post-TBI. How it is done: An additional KCNQ2/3-specific compound, RL648_81 was also administered in the same manner (0.03 mg/kg, 0.1 mg/kg, and 0.3 mg/kg). […] To monitor the occurrence of spontaneous myoclonic seizures after, the mice were video/EEG monitored from the second to the fourth day after the TBI (72 hours total).

Assay [3] concerns cortical neurons. Put plainly: In vivo two-photon calcium imaging of cortical neurons through a cranial window after TBI. Conditions: living mouse brain. The text has this: Referring now to FIG. 9, another embodiment of the present invention concerns in vivo imaging of intracellular calcium levels in neurons from living brain in vivo, as a reporter of activity/hyperactivity. The genetically-encoded calcium reporter, GCaMP6f, was used in transgenic mice in which the reporter is expressed in critical subsets of brain neurons, allowing in vivo recordings of neurons of living brain, as a reporter of activity/hyperactivity in cortex induced by TBI, the first event in the hypothesis of the present invention, which causes TBI-induced brain damage (See, e.g., FIG. 1). For these experiments two-photon confocal live imaging of mouse cortical neurons through a cortical window was used. Live video records of the activity of cortical neurons in mice before and after TBI were made.

Assay [4] concerns mice subjected to one blunt TBI, pentylenetetrazol (PTZ). Description: PTZ-induced seizure susceptibility after one blunt TBI (CCCI). Conditions: RL648_81 at 0.1 mg/kg; PTZ 35 mg/kg s.c. fifth day post-TBI. The assay is classed as in vivo, mouse. The text has this:
Stimulation with PTZ induced the occurrence of clonic and tonic-clonic seizures in TBI-subjected mice.

Assay [5] has as its system neurons of the dentate gyrus of the hippocampus. Description: Ex vivo brain-slice calcium imaging (GCaMP6f) with kainic acid stimulation after TBI. Format: in vivo, mouse. The following applies: RL648_81 30 minutes after blunt TBI. How it is done:
In another embodiment of the present invention, ex vivo imaging of intracellular calcium levels in neurons, which are a reporter of activity or hyper-activity of neurons, were assayed in the brain slices using transgenic mice expressing the genetically encoded indicator of calcium levels, GCaMP6f expressed only in neurons.
Turning now to FIG. 8, the chemo-convulsant, kainic acid (KA), was used to stimulate neurons from brain slices of the dentate gyms (DG) of the hippocampus (the part of the brain where most new memories are thought to form) from sham mice, mice subjected to a TBI but not drug or TBI followed by RL-648_81.

As for `O=C1N(c2ccccc2)c2ccccc2C1(Cc1ccncc1)Cc1ccncc1` [leopardine], in assay [1], the “action potential firing in response to stimuli” value is “out-of-control AP firing”.

Regarding `CCOC(=O)Nc1ccc(NCc2ccc(C(F)(F)F)cc2)c(F)c1N` [RL648_81], the “occurrence of TBI-induced myoclonic seizures” value in assay [2] is on record as “measurably reduced the occurrence of TBI-induced myoclonic seizures”. In assay [3], the “TBI-induced hyper-excitability in cortex imaged in vivo” value was “prevents TBI-induced hyper-excitability in cortex”. Further, the “occurrence of PTZ-induced seizures” value in assay [4] is on record as “completely blocked the occurrence of PTZ-induced seizures”. Besides, in assay [5], the “TBI-induced increase in hyper-activity in response to kainic acid stimulation (hippocampal slices, ex vivo)” value is “reduces the increased seizure susceptibility in brain slices; also recorded: completely abolished”.

These data come from patent publication US20220354818A1, “METHODS FOR TREATING BRAIN INJURY OR COGNITIVE DYSFUNCTION BY PHARMACOLOGICAL ENHANCMENT OF M-TYPE POTASSIUM ION CURRENTS IN NEURONS” (Advanced Neuroresearch Therapeutics LLC, priority 2019, published 2022).
